Results: patent publication EP0126483A2, “Deodorant” (Eduard Gerlach GmbH Chemische Fabrik, priority 1983, dated 1984)
Like-named read-outs stand apart in the source and are kept apart here.

System: Achsel- und Fußschweiß
Conditions: for desodorierende Wirksamkeit: result in words, concentration not given

| Molecule | desodorierende Wirksamkeit | also measured |
| --- | --- | --- |
| NC(=O)NC(N)=O [Biuret] | Wirksam | – |
| CC(=O)NCCO [Essigsäuremonoethanolamid] | besonders kräftiger Wirkstoff | anhaltender Schutz vor der Bildung unangenehmer Zersetzungsprodukte des Achsel- und Fußschweißes (3 bis 5 % in a deodorant preparation, time after application): ≤ 24 Stunden |
| CC(O)C(=O)NCCO (centres unmarked) [Ethanolamide der Milchsäure] | Die gleiche Eigenschaft | – |
| CCC(=O)NCCO [Ethanolamide der Propionsäure] | Die gleiche Eigenschaft | – |
| NC(N)=O [Harnstoff, reference compound] | mit bestem Erfolg | – |
| O=C(O)CNC(=O)c1ccccc1 [Hippursäure] | Wirksam | – |
| O=C1CC(=O)NC(=O)N1 [Malonylharnstoff(Barbitursäure), Malonylharnstoff] | Wirksam | – |
| CC(=O)NCC(=O)O [N-Acetylglycin (Acetursäure), N-Acetylglycin] | gute Wirkstoffe | – |
| CC(C)(CO)C(O)C(=O)NCCCO (centres unmarked) [Panthenol, N-Propanolamid der 1,3-Dihydroxy-2,2-Dimethylbuttersäure, reference compound] | – | Desodorierung des Achsel- und Fußschweißes (3 %ige Lösung in Alkohol/Wassergemisch): befriedigende Desodorierung; Desodorierung des Achsel- und Fußschweißes (5 % in Alkohol/Wassergemisch, also in strongly perspiring persons): optimal; Hautfreundlichkeit (in vivo): hervorragender |
| CCOC(N)=O [Urethan] | Wirksam | – |
| NC(=O)NCCO [ß-Hydroxiethylharnstoff] | Sehr wirksam | – |
| Ethanolamide der Adipinsäure | Erfolgreich getestet | – |
| Ethanolamide der Bernsteinsäure | Erfolgreich getestet | – |
| Ethanolamide der Glutarsäure | Erfolgreich getestet | – |
| Ethanolamide der Malonsäure | Erfolgreich getestet | – |
| Ethanolamide der Weinsäure | Erfolgreich getestet | – |
| Ethanolamide der Zitronensäure | Erfolgreich getestet | – |
